Measured values as given in US5149859A, “Naphthalene derivatives” (Teijin Limited, priority 1989, dated 1992).
Like-named read-outs stand apart in the source and are kept apart here.

What was measured:
Type in all cases: cell-based
lipoxygenase [1] = assay: Activity of inhibiting lipoxygenase production in human whole blood (Table 2-1); conditions: final 10^-4 M, 37° C., 15 min, 100 µM; for Inhibitory ratio (%) 12-HETE: A23187 25 μM; for Inhibitory ratio (%) 5-HETE / Inhibitory ratio (%) LTB4: A23187 25 μm
Experimental: Evaluation of activity of inhibiting lipoxycenase production in human whole blood Into 2 ml of a heparin-treated vein blood of a healthy person without administration of a drug was added 2 μl of the DMSO solution of each compound listed in Table 2-1 (final 10^-4 M). After treatment at 37° C. for 5 minutes, 10 μl of a DMSO solution of A23187 was added (final 25 μm) to carry out the treatment at 37° C. for 15 minutes, followed by ice-cooling. As the internal standard substance for quantitation, 10 μl of a DMSO solution of 100 ng of 15-HETE was added, and then 0.8 ml of acetonitrile was added and the precipitates formed were removed by centrifugation. LTB4, 5-HETE, 12-HETE in the supernatant were separated and quantitated. The results are shown in Table 2-1 as a production inhibitory ratio of LTB4.

lipoxygenase [2] = molecular target: T1, lipoxygenase (Homo sapiens, UniProt P09917); assay: Activity of inhibiting lipoxygenase production in human whole blood (Table 3-1); conditions: 0.25 h, final 10^-5 M, A23187 25 μM, 37° C.
T1 construct: heparin-treated vein blood of a healthy person without administration of a drug; from tissue; host or cells: human heparinised venous whole blood
T1 sequence (P09917 1-674): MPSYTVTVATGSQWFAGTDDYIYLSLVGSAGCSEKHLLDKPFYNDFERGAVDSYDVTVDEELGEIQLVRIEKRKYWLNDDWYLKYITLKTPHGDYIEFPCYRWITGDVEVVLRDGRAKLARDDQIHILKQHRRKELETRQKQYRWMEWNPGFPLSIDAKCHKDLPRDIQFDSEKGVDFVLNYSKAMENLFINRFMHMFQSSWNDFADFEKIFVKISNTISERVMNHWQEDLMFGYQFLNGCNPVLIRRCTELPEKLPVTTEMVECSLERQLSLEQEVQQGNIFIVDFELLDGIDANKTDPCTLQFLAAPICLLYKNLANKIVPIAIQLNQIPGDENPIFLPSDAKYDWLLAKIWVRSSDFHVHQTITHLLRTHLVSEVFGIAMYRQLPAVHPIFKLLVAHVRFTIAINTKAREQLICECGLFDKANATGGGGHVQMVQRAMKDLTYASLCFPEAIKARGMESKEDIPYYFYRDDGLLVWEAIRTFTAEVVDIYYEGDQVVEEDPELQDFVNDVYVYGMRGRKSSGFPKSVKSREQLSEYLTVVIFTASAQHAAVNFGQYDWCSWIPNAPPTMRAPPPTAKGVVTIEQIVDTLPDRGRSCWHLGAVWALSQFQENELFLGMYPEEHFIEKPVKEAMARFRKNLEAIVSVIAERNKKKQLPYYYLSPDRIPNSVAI
Experimental: Evaluation of activity of inhibiting lipoxygenase production in human whole blood
Into 1 ml of a heparin-treated vein blood of a healthy person without administration of a drug was added 1 μl of the DMSO solution of each compound listed in Table 3-1 (final 10^-5 M). After treatment at 37° C. for 5 minutes, 5 μl of a DMSO solution of calcium ionophone (A23187, 25 μM) was added to carry out the treatment at 37° C. for 15 minutes, followed by ice-cooling. As the internal standard substance for quantitation, 10 μl of a DMSO solution of 100 ng of 15-HETE was added, then 0.8 ml of acetonitrile was added, and the precipitates formed were removed by centrifugation. LTB4, 5-HETE in the supernatant were separated and quantitated, and the results are shown as the production inhibitory ratio of LTB4, etc. in Table 3-1.

lipoxygenase [3] = assay: Activity of inhibiting lipoxygenase production in human whole blood (Table 1-1); conditions: A23187 25 μM, 15 min
Experimental: Evaluation of activity of inhibiting lipoxygenase production in human whole blood Into 2 ml of a heparin-treated vein blood of a healthy person without administration of a drug was added 2 μl of the DMSO solution containing the test sample of the sulfide ketone derivative listed in Table 1-1 as the drug to be tested (final 10^-5 M). After treatment at 37° C. for 5 minutes, 10 μl of a DMSO solution of A23187 was added (final 25 μM) to carry out the treatment at 37° C. for 15 minutes, followed by ice-cooling. As the internal standard substance for quantitation, 10 μl of a DMSO solution of 100 ng of 15-HETE was added, and then 0.8 ml of acetonitrile was added and the precipitates formed were removed by centrifugation. LTB4, 5-HETE, 12-HETE in the supernatant were separated and quantitated. The results are shown in Table 1-1 as the lipoxygenase production inhibitory ratio. | *For only this compound, the results are shown in "× 10^-4

lipoxygenase [4] = molecular target: T2, lipoxygenase (Rattus norvegicus, UniProt P12527); assay: Activity of inhibiting lipoxygenase production in basophilic leukemia (RBL-1) cells (Table 3-2); conditions: 0.25 h, arachidonic acid 50 μg, A23187 25 μM, read-out: Inhibitory ratio (%) LTB4; for inhibition at 1 µM: 10^-6 M; for inhibition at 0.1 µM: 10^-7 M
T2 construct: A 5×10^6 amount cells of RBL-1 were used; endogenous in cells; host or cells: RBL-1 (basophilic leukemia cells)
T2 sequence (P12527 1-673): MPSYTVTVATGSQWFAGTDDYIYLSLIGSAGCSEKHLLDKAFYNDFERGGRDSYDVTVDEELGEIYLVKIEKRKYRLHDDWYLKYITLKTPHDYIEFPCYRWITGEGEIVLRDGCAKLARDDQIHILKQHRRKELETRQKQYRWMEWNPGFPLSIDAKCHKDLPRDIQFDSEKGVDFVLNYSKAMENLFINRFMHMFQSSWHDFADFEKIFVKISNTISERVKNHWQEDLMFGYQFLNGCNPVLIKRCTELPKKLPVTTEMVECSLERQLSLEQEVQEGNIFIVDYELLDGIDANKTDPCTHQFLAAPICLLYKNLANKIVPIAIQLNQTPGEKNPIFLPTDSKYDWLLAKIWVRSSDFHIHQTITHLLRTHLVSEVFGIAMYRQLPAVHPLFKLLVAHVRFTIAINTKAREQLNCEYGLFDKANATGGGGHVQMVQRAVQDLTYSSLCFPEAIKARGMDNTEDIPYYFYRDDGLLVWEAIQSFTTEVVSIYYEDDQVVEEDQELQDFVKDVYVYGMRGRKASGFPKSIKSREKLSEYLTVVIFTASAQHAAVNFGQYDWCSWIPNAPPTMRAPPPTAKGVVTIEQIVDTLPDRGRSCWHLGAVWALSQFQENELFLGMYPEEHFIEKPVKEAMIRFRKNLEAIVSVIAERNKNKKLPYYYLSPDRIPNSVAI
Experimental: Evaluation of activity of inhibiting lipoxygenase production […] (RBL-1) cells
A 5×10^6 amount cells of RBL-1 were used and the DMSO solution of each compound listed in Table 3-2 was added thereto so that the final concentration was obtained. After incubation at 37° C. for 5 minutes, 50 μg of arachidonic acid and 25 μM of calcium ionophore (A23187) were added thereto, followed by incubating at 37° C. for 15 minutes. The extraction was carried out after the reaction was completed. The product was determined by reversed phase HPLC.

[5] = read-out: Inhibitory ratio (%) 5-HETE
[6] = read-out: Inhibitory ratio (%) LTB4
[7] = footnote: results shown in × 10^-4 (only this compound)

COC(=O)CCCC(=O)C(=O)c1ccc2cc(O)ccc2c1 [Example 2-4, methyl 6-(6-hyerocy-2-naphthyl)-5,6-dioxohexanoate]
Inhibitory ratio (%) 12-HETE (lipoxygenase [1]): 3% | Inhibitory ratio (%) 5-HETE (lipoxygenase [1]): 81% | Inhibitory ratio (%) LTB4 (lipoxygenase [1]): 78%

COC(=O)COCC(=O)N(O)c1ccc2ccccc2c1O [Example 3-6, N-hydroxy-N-(1-hydroxy-2-naphthyl)-4-methoxycarbonyl-3-oxabutanamide]
inhibition at 10 µM (lipoxygenase [2]; [5]): 18% | inhibition at 10 µM (lipoxygenase [2]; [6]): 24%

O=C(O)CCCC(=O)CSc1ccc2cc(O)ccc2c1 [Example 1-14, 6-(6-hydroxy-2-naphthylthio)-5-oxohexanoic acid]
Inhibitory ratio (%) 5-HETE (lipoxygenase [3]; final 10^-5 M, 37° C., 10 µM): 49% | Inhibitory ratio (%) 12-HETE (lipoxygenase [3]; final 10^-5 M, 37° C., 10 µM): 20% | Inhibitory ratio (%) LTB4 (lipoxygenase [3]; final 10^-5 M, 37° C., 10 µM): 37%

COC(=O)CCCC(=O)CSc1ccc2cc(O)ccc2c1 [Example 1-12, methyl 6-(6-hydroxy-2-naphthylthio)-5-oxohexanoate]
Inhibitory ratio (%) 5-HETE (lipoxygenase [3]; final 10^-5 M, 37° C., 10 µM): 6% | Inhibitory ratio (%) 12-HETE (lipoxygenase [3]; final 10^-5 M, 37° C., 10 µM): 17% | Inhibitory ratio (%) LTB4 (lipoxygenase [3]; final 10^-5 M, 37° C., 10 µM): 2% | inhibition at 1 µM (lipoxygenase [4]): 53% | inhibition at 0.1 µM (lipoxygenase [4]): 27% | inhibition at 0.01 µM (lipoxygenase [4]; 10^-8 M): 28%

COC(=O)CCC(CSc1ccc2cc(O)ccc2c1)=NO [Example 1-11, methyl 5-(6-hydroxy-2-naphthylthio)-4-hydroxyiminopentanoate]
Inhibitory ratio (%) 5-HETE (lipoxygenase [3]; final 10^-5 M, 37° C., 10 µM): 56% | Inhibitory ratio (%) 12-HETE (lipoxygenase [3]; final 10^-5 M, 37° C., 10 µM): 28% | Inhibitory ratio (%) LTB4 (lipoxygenase [3]; final 10^-5 M, 37° C., 10 µM): 64%

CON=C(CSc1ccc2cc(OC)ccc2c1)CC(=O)OC [Example 1-6, methyl 4-(6-methoxy-2-naphthylthio)-3-methoxyiminobutanoate]
Inhibitory ratio (%) 5-HETE (lipoxygenase [3]; final 10^-5 M, 37° C., 10 µM): 29% | Inhibitory ratio (%) LTB4 (lipoxygenase [3]; final 10^-5 M, 37° C., 10 µM): 37%

COC(=O)CCCC(=NO)C(=NO)c1ccc2cc(O)ccc2c1 [Example 2-5, methyl 6-(6-hydroxy-2-naphthyl)-5,6-dihydroxyiminohexanoate]
Inhibitory ratio (%) 12-HETE (lipoxygenase [1]): 4% | Inhibitory ratio (%) 5-HETE (lipoxygenase [1]): 78% | Inhibitory ratio (%) LTB4 (lipoxygenase [1]): 93%

COC(=O)CCCCC(=O)N(O)c1ccc2ccccc2c1O [Example 3-4, N-hydroxy-N-(1-hydroxy-2-naphthyl)-5-methoxycarbonylpentanamide]
inhibition at 10 µM (lipoxygenase [2]; [5]): 38% | inhibition at 10 µM (lipoxygenase [2]; [6]): 45%

COC(=O)CCCC(Sc1ccc2cc(OC)ccc2c1)C(C)=NO (stereo not drawn) [Example 1-4]
Inhibitory ratio (%) 5-HETE (lipoxygenase [3]; [7]): 43% | Inhibitory ratio (%) 12-HETE (lipoxygenase [3]; [7]): 29%

COC(=O)CCCC(=O)N(O)Cc1ccc2ccccc2c1 [Example 3-8, N-hydroxy-N-(2-naphthylmethyl)-4methoxycarbonylbutanamide]
inhibition at 10 µM (lipoxygenase [2]; [5]): 59% | inhibition at 10 µM (lipoxygenase [2]; [6]): 60%

COC(=O)CCC(=O)N(O)Cc1ccc2ccccc2c1 [Example 3-7, N-hydroxy-N-(2-naphthylmethyl)-3-methoxycarbonylpropionamide]
inhibition at 10 µM (lipoxygenase [2]; [5]): 59% | inhibition at 10 µM (lipoxygenase [2]; [6]): 71%

COC(=O)CCCC(=O)N(O)c1ccc2ccccc2c1O [Example 3-2, N-hydroxy-N-(1-hydroxy-2-naphthyl)-4-methoxycarbonylbutanamide]
inhibition at 10 µM (lipoxygenase [2]; [5]): 80%

COC(=O)CCCC(=NO)C(=O)c1ccc2cc(O)ccc2c1 [Example 2-9, methyl 6-(6-hydroxy-2-naphthyl)-5-hydroxvimino-6-oxohexanoate]
Inhibitory ratio (%) 12-HETE (lipoxygenase [1]): 27% | Inhibitory ratio (%) 5-HETE (lipoxygenase [1]): 77% | Inhibitory ratio (%) LTB4 (lipoxygenase [1]): 66%

COC(=O)CCCCCC(=O)N(O)c1ccc2ccccc2c1O [Example 3-5, N-hydroxy-N-(1-hydroxy-2-naphthyl)-6-methoxycarbonylhexanamide]
inhibition at 10 µM (lipoxygenase [2]; [5]): 40% | inhibition at 10 µM (lipoxygenase [2]; [6]): 39%

O=C(O)CCCC(=O)N(O)c1ccc2ccccc2c1O [Example 3-3, N-hydroxy-N-(1-hydroxy-2-naphthyl)-4-carboxybutanamide]
inhibition at 1 µM (lipoxygenase [4]): 35% | inhibition at 0.1 µM (lipoxygenase [4]): 20%

COC(=O)CCCC(=O)N(O)Cc1ccc2ccccc2c1OC [Example 3-9, N-hydroxy-N-(1-methoxy-2-naphthylmethyl)-4-methoxycarbonylbutanamide]
inhibition at 10 µM (lipoxygenase [2]; [5]): 27% | inhibition at 10 µM (lipoxygenase [2]; [6]): 40%

COC(=O)c1cccc(C(=O)N(O)c2ccc3ccccc3c2O)c1 [Example 3-10, N-hydroxy-N-(1-hydroxy-2-naphthyl)-3-methoxycarbonylbenzamide]
inhibition at 10 µM (lipoxygenase [2]; [5]): 45% | inhibition at 10 µM (lipoxygenase [2]; [6]): 63%
